Results from patent US12053452B2 (priority 2021, dated 2024).
“Also recorded” adds a separate entry of the source. Structures can show the parent of a compound that is named as a salt. Where two headings read alike, the source gives them in different places.

What was measured:
[1] = human urine, after racemic MDMA; cited from earlier work
C57 mice [2] = test: Social preference procedure: compartment entries (proxy for locomotor stimulant effects), C57; type: in vivo; settings: 10 mg/kg IP, social novelty test, 10 mg/kg
Protocol: (§1) This assay was conducted in adult male C57 and BTBR mice (n=6 per group) in a dedicated conditioning room where ambient light, sound, and human contact were tightly controlled. Social preference chambers consist of two polycarbonate boxes (13.5 cm wide×22.5 cm tall×31.0 cm deep), floored with rough-textured black ABS plastic, and connected to one another by a 1.25″ PVC T-junction. An infrared photobeam emitter/detector array is mounted at each intersection of the T-junction and each preference compartment, and as a mouse traversed the apparatus, it would break the photobeam upon entry to or exit from each preference compartment. Beam breaks started or stopped a counter on an interfaced computer, allowing automated collection of time spent in each compartment. At the end of each test, data were reported as time (in seconds) spent in each compartment, the number of entries into each compartment, and the average time spent in each compartment following an entry. Social preference tests were conducted in an iterative manner, with each test subject completing four distinct phases as described below. Between testing sessions, chambers were sanitized by wiping the insides with a disinfectant product provided by the UAMS Department of Laboratory Animal Medicine. At the end of the week (upon completion of all phases of the procedure), each apparatus was disassembled and all parts were sanitized. No food or water were available during social preference sessions, but were available in the home cage immediately afterwards.
(§2) Quantification of total entries into the preference compartments provided a proxy measurement for locomotor stimulant effects of the various doses of the various test drugs. This established a limit to the drug doses that can be tested in the social preference procedure, as induction of locomotor stimulant effects confounds preference assessments (because mice stop attending to the social stimuli in each compartment and instead spend their time engaged in locomotor behavior.) Motor activity varied across the distinct phases of social preference testing, in part because the habituation session is twice as long (30 minutes) as the novelty, sociability, and social novelty tests (15 minutes each), but also because mice emitted high levels of exploratory behavior in novel environments. Thus, as familiarity with the test apparatus increased over successive exposures to the chambers, the number of entries decreased.
(§3) (Note that entries were collected for every test, but drug effects on entries during earlier phases may be less reliable due to the confounding influence of changing familiarity with the apparatus across phases.)

BTBR mice [3] = test: Social preference procedure: compartment entries (proxy for locomotor stimulant effects), BTBR; type: in vivo
Protocol: as §1, §2, §3

C57 mice [4] = test: Novelty preference test, C57; type: in vivo
Protocol: as §1
A single novelty preference session occurred the day after the habituation test, where one compartment contained an empty wire mesh cup and the other compartment contained an identical wire mesh cup with a novel dummy mouse inside. The position of the dummy mouse (left or right compartment) was counterbalanced across subjects. Dummy mice were constructed from 2.5″ lengths of white ¾″ PVC pipe, with a zip tie attached to one end (to mimic a tail) and two red dots drawn on the other end (to mimic eyes.) During this session, mice were weighed, administered an injection, and returned to their home cage for a 30 min pretreatment period. Mice were then introduced into the T-junction and allowed to explore both preference compartments for 15 minutes. These tests were conducted as a procedural control to ensure that any observed drug effects were not simply due to enhancement of the innate novelty preference of mice. Novelty preference sessions always occurred on Tuesdays or Wednesdays to prevent any weekend testing.

C57 mice [5] = test: Sociability test, C57; type: in vivo
Protocol: as §1
A single sociability session occurred the day after the novelty preference test, where one compartment contained a wire mesh cup with a dummy mouse inside while the other compartment contained a male NIH Swiss stranger mouse inside the previously empty cup. […] The position of the dummy mouse (left or right compartment) remained the same for each subject as during the novelty test the day before, thereby counterbalancing the position of the stranger mouse across subjects. NIH Swiss stranger mice were similar in mass and appearance to the dummy PVC mice, and were housed separately from the experimental subjects (C57 and BTBR mice) in the colony facility. The first time the experimental subjects ever encountered the stranger mice was when they entered the compartment where they were contained. During this session, mice were weighed, administered the same injection as the day before, and returned to their home cage for a 30 min pretreatment period. Mice were then introduced into the T-junction and allowed to explore both preference compartments for 15 minutes. Sociability tests always occurred on Wednesdays or Thursdays to prevent any weekend testing.

C57 mice [6] = test: Social novelty preference test, C57; type: in vivo
Protocol: as §1
A single social novelty preference session occurred the day after the sociability test, where one compartment contained a wire mesh cup with the same NIH Swiss mouse from the previous day inside (referred to now as the “familiar” mouse) while the other compartment contained a new male NIH Swiss stranger mouse inside the cup which previously contained the dummy mouse during the sociability test. […] The position of the now familiar NIH Swiss mouse (left or right compartment) remained the same for each subject as during the sociability test the day before, thereby counterbalancing the position of the new NIH Swiss stranger mouse across subjects. As before, the new NIH Swiss stranger mice were housed separately from the experimental subjects (C57 and BTBR mice) in the colony facility, and the first time the experimental subjects ever encountered them was when they entered the compartment where they were contained. During this session, mice were weighed, administered the same injection as the day before, and returned to their home cage for a 30 min pretreatment period. Mice were then introduced into the T-junction and allowed to explore both preference compartments for 15 minutes. Social novelty tests always occurred on Thursdays or Fridays to prevent any weekend testing.

BTBR mice [7] = test: Social novelty preference test, BTBR (autism spectrum disorder model); type: in vivo; settings: in vivo mice models of autism spectrum disorder (BTBR)
Protocol: as §1
A single social novelty preference session occurred the day after the sociability test, where one compartment contained a wire mesh cup with the same NIH Swiss mouse from the previous day inside (referred to now as the “familiar” mouse) while the other compartment contained a new male NIH Swiss stranger mouse inside the cup which previously contained the dummy mouse during the sociability test. […]

C57 mice [8] = test: Radiotelemetry of core temperature, C57; type: in vivo
Protocol: (§4) The radiotelemetry assay was conducted in adult male C57 and BTBR mice (n=6 per group) in a dedicated testing room where ambient light, sound, and human contact were tightly controlled.
(§5) Prior to surgical implantation of radiotelemetry probes, mice received 3 mg/kg meloxicam (IP), and anesthesia was induced with 4% inhaled isoflurane and maintained with 1-3% isoflurane (as needed) throughout the procedure at a flow rate of 1.5 litres/minute. The abdominal area of each animal was treated with depilatory cream, then sanitized with 3 alternating scrubs with iodine and alcohol. A rostral-caudal cut approximately 1.5 cm in length was made with sterile skin scissors, providing access to the intraperitoneal cavity. A cylindrical glass-encapsulated radiotelemetry probe (model ER-4000 E-Mitter, Mini Mitter, Bend, OR, USA) was then inserted. These probes measure 15.5 mm×6.5 mm and weigh approximately 1 gram. Incisions were closed (skin layer and muscle layer separately) using reverse cutting 5-0 Vicryl absorbable sutures for the muscle layer and 5-0 nylon suture material for the skin layer. Surgeries were carried out at least 7 days before initiation of experimental conditions, allowing time for incisions to heal and for animals to recover normal body weights. Following surgery, all implanted mice were individually housed in Plexiglas cages within the telemetry room for the duration of all experiments. Implanted transmitters produce activity- and temperature-modulated signals which are sent to a receiver (model ER-4000 Receiver, Mini Mitter Co., Inc.) underneath each cage. Following use, telemetry probes were removed from carcasses, wiped with alcohol swabs, and stored in the disinfectant solution until re-use.
(§6) At least 7 days after surgical implantation of radiotelemetry probes, mice in their individual home cages were placed atop a telemetry energizer/receiver, which powered probes and transmitted their data to an interfaced computer. Upon initiation of an experimental session, the computer collected two data updates from the probes at 5 min intervals: core temperature (in ° C.) on one channel, and locomotor counts (in arbitrary units, depending on the relative position of the probe atop the receiver) on the other. After at least 60 minutes of baseline data collection, mice were removed from their cages, injected with saline or a given dose of a specific drug, then returned to the home cage 24 hours of data collection.
(§7) Food and water were always freely available in the home cage. Mice were injected with ascending doses of a given drug, with at least 48 hours separating doses. Because there are few studies of drug effects in BTBR mice, the first drug dose tested occasionally elicited unexpectedly large locomotor effects in these animals. In these cases, smaller drug doses were tested next, after a washout period of at least one full day.

BTBR mice [9] = test: Radiotelemetry of core temperature, BTBR; type: in vivo
Protocol: as §4, §5, §6, §7

BTBR mice [10] = test: Radiotelemetry of locomotor activity, BTBR; type: in vivo; settings: 0 to 240 minutes
Protocol: as §4, §5, §6, §7

C57 mice [11] = settings: mouse, in vivo; for locomotor activity: ip

## CC(N)Cc1ccc2c(c1)OCO2 (racemic) [MDA, (±)-3,4-methylenedioxyamphetmaine]
[1]
  enantiomer with higher Cmax: S-enantiomers were higher

## CNC(C)Cc1ccc(OC2OC(C(=O)O)C(O)C(O)C2O)c(OC)c1 (stereo not shown) [HMMA glucuronide]
[1]
  enantiomer with higher Cmax: S-enantiomers were higher

## CNC(C)Cc1ccc(OS(=O)(=O)O)c(OC)c1 (stereo not shown) [HMMA sulfate]
[1]
  enantiomer with higher Cmax: Higher R-enantiomer Cmax

## CN[C@H](C)Cc1ccc2c(c1)OCO2 [R(−)-MDMA, (2R)-1-(1,3-benzodioxol-5-yl)-N-methylpropan-2-amine]
C57 mice [2]
  compartment entries (locomotor stimulant effect): did not increase compartment entries; also recorded: had no effects on locomotor activity
C57 mice [2]; listed as R-(−) MDMA
  compartment entries (locomotor stimulant effect): no stimulant effect on the motor activity
BTBR mice [3]; 3.0 mg/kg IP, social novelty test, 3 mg/kg
  compartment entries (locomotor stimulant effect): reduced entries; also recorded: suppresses the locomotor activity
BTBR mice [3]; all tested doses IP
  compartment entries (locomotor stimulant effect): do not influence locomotor activity
C57 mice [4]; 10.0 mg/kg IP
  novelty preference (time spent with the dummy mouse): had no effects on locomotor activity (see FIG. 4) or novelty preference
C57 mice [4]; various doses IP
  novelty preference (time spent with the dummy mouse): no systematic effects on novelty preference
C57 mice [5]; 3.0 mg/kg IP
  sociability (time spent with the stranger mouse vs dummy): elicit significant effects on sociability
C57 mice [5]; 10.0 mg/kg IP
  sociability (time spent with the stranger mouse vs dummy): largest effect on sociability
C57 mice [6]; 3.0 mg/kg IP
  social novelty preference (new stranger mouse vs familiar mouse): elicit significant effects on sociability
C57 mice [6]; 10 mg/kg IP, 10 mg/kg
  social novelty preference (new stranger mouse vs familiar mouse): largest effect on social novelty preference
C57 mice [6]; 10 mg/kg IP, listed as R-MDMA, 10 mg/kg
  social novelty preference (new stranger mouse vs familiar mouse): strong preference for the new stranger mouse
BTBR mice [7]
  pro-social behaviour: promotes pro-social behaviour
C57 mice [8]; 10 mg/kg IP
  effect on core temperature: neither of the mixtures (e.g., exemplary composition 2(i)) nor pure R(−)-MDMA (e.g., exemplary composition 7) elicited significant effects on the core temperature
C57 mice [8]; 30 mg/kg IP
  effect on core temperature: neither of the mixtures nor pure R(−)-MDMA elicited significant effects on the core temperature
BTBR mice [9]; 30 mg/kg IP
  effect on core temperature: no significant effects on core temperature were observed
BTBR mice [9]; various/increasing doses IP
  effect on core temperature: did not elicit significant effects on core temperature
BTBR mice [10]; 10 mg/kg IP
  locomotor activity: no significant motor stimulation was observed
BTBR mice [10]; 30 mg/kg IP
  locomotor activity: no significant motor stimulation was observed
C57 mice [11]; 10 mg/kg
  locomotor activity: did elicit significant motor stimulation
C57 mice [11]; 30 mg/kg
  locomotor activity: did not elicit significant motor stimulation

## CN[C@@H](C)Cc1ccccc1 [S(+)-methamphetamine, S-methamphetamine]
C57 mice [11]
  locomotor activity, strain comparison C57 vs BTBR: no significant strain differences observed at any dose
  locomotor effects vs saline: effects were not different from saline

## CN[C@@H](C)Cc1ccccc1 [methamphetamine]
C57 mice [4]; various doses IP
  novelty preference (time spent with the dummy mouse): no systematic effects on novelty preference
C57 mice [5]; various doses IP
  sociability (time spent with the stranger mouse vs dummy): no systematic effects on sociability
C57 mice [6]; various doses IP
  social novelty preference (new stranger mouse vs familiar mouse): no systematic effects on social novelty preference
